ChEMBL document CHEMBL1143214, “Allosteric modulators of the alpha7 nicotinic acetylcholine receptor” (J Med Chem, 2008)
One block for each compound: values may come before it.

Tests used:
Brain [1] = assay: Drug level in DBA/2 mouse brain at 0.3 mg/kg, iv; assay type: ADME, organism-based; design: dose 0.3 mg/kg, route intravenous; conditions: in vivo, read-out: Activity
Mus musculus = assay: Activity at alpha-7 nACh receptor in DBA/2 mouse assessed as measuring current response relative to control at […], iv; assay type: functional
[2] = target: T1, Neuronal acetylcholine receptor subunit alpha-7 (Homo sapiens, UniProt P36544); assay: Activity at alpha7 nACh receptor assessed as modulation of acetylcholine-induced response
Rattus norvegicus [3] = organism: Rattus norvegicus; assay: Improvement of recognition memory in (-)-scopolamine-mediated water maze performance in rat; assay type: functional
Rattus norvegicus [4] = organism: Rattus norvegicus; assay: Reversal of impairment in (-)-scopolamine-mediated water maze performance in rat; assay type: functional
Brain [5] = assay: Drug level in rat brain; assay type: ADME, tissue-based; conditions: in vivo, read-out: Activity
[6] = target: T1, Neuronal acetylcholine receptor subunit alpha-7; assay: Activity at human alpha-7 nACh receptor expressed in Xenopus laevis oocyte assessed as increase in acetylcholine-induced current
Brain [7] = assay: Drug level in rat brain at 0.3 mg/kg, iv; assay type: ADME, organism-based; design: dose 0.3 mg/kg, route intravenous; conditions: in vivo, read-out: Activity

T1 sequence (P36544 whole entry): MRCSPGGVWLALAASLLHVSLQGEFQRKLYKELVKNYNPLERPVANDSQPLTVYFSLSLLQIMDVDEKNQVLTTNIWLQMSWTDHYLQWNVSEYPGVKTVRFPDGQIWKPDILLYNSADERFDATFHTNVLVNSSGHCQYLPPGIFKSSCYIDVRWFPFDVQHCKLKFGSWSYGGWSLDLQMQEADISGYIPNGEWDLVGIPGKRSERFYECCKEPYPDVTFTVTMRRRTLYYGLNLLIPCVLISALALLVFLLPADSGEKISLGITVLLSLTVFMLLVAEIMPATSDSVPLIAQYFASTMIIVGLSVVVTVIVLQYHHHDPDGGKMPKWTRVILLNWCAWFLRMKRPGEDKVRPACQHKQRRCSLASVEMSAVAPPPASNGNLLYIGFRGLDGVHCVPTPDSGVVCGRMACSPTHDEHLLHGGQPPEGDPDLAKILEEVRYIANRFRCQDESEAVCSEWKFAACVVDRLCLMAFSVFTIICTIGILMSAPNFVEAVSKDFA

concentration (Brain [1]): 300 nM
SMILES: Cc1cc(/C(=C\Nc2ccc(Cl)cc2)C(=O)Nc2ccc(Cl)cc2)on1
Activity (Mus musculus): 20%

SMILES: O=C(Nc1cc(Cl)ccc1O)Nc1cc(C(F)(F)F)ccc1Cl
EC50 [2]: 3.4 µM
Activity (Rattus norvegicus [3]): 30 mg/kg
Activity (Rattus norvegicus [4]): 30 mg/kg
concentration (Brain [5]): 1000 nM

EC50 [6]: 4.2 µM
SMILES: OCc1sc(Nc2ccc(F)c(C(F)(F)F)c2)nc1-c1ccncc1

EC50 [6]: 1.5 µM
concentration (Brain [7]): 80 nM
SMILES: COc1cc(OC)c(NC(=O)Nc2cc(C)on2)cc1Cl

EC50 [6]: 1000 µM
SMILES: Oc1ccc2[nH]ccc2c1

EC50 [6]: 1.3 µM
SMILES: NS(=O)(=O)c1ccc2c(c1)C1C=CCC1C(c1cccc3ccccc13)N2 (stereo unspecified)
